This is an account of results in paper PMC11002875, “Linking triphenylphosphonium cation to a bicyclic hydroquinone improves their antiplatelet effect via the regulation of mitochondrial function” (Redox Biology, 2024).

In data set [1] the test system is Washed platelets. Kind of data set: Platelet aggregation in washed platelets (aggregometer). The data set is classed as cell-based, Human. The settings on record: washed platelets. As for the experimental part: (§1) Human platelet purification. The blood sample was obtained from voluntary donors (10 days without antiplatelet medication) who agreed to participate after signing informed consent (Scientific Ethics Committee of the University of Talca N° 04–2022). Briefly, blood anticoagulated with acid-citrate-dextrose (ACD) was obtained in a 4:1 v/v ratio. The sample was centrifuged for 12 min at 250 g to obtain platelet-rich plasma (PRP). Subsequently, the PRP was centrifuged for 8 min at 900 g to obtain the platelet pellet. The plasma supernatant was removed, and the platelets were resuspended in Tyrodes buffer without calcium plus ACD in a ratio of 5:1 v/v. The platelets were centrifuged once more for 8 min at 900 g and the pellet was resuspended in Tyrodes buffer without calcium. Finally, the platelets were counted (Mindray BC-3000 Plus hematology counter, Japan), adjusted to the desired concentration, and used within 3 h.
Platelet aggregation. Washed platelets (200-250 × 10^6 platelets/mL) were preincubated with 2 mM CaCl2 and then with the compounds under study for 5 min at 37 °C in the aggregometer (Agg RAM- Helena Biosciences). Aggregation was initiated with the agonists: collagen 2 μg/mL; convulxin 20 ng/mL; TRAP-6 (Thrombin receptor activator peptide 6) 5 μM; PMA (Phorbol myristate acetate) 100 nM or arachidonic acid 250 μg/mL. The aggregation curve was evaluated for 5 min at 37 °C in shaking at 1000 rpm.

Data set [2] relates to Washed platelets. Kind of data set: Platelet activation markers in washed platelets (flow cytometry). The data set is classed as cell-based, Human. The settings on record: collagen 2 μg/mL; compounds 1, 5 and 10 μM; vs activated control. As for the experimental part: as §1
Platelet activation markers. Washed platelets (200-250 × 10^6 platelets/mL) were incubated with the compounds (1, 5 and 10 μM), then activated with collagen 2 μg/mL and incubated for 5 min at 37 °C. Aliquots of the reaction were then collected and labeled separately with human antibodies (BD Biosciences, San José, CA, USA) for P-selectin, CD63, activated GPIIb/IIIa (PAC-1), and fibrinogen to assess the levels of each marker on the platelet membrane. The sample was acquired using the BD Facs Lyric flow cytometer (BD Biosciences, USA). Representative dot plots are available in Supplementary Figures 8-11 and 20-23. In the case of the activation markers P-selectin and bound fibrinogen in PRP, the same procedure for washed platelets was performed with representative dot plots available in Supplementary Figs. 15 and 16. The platelet population was identified with anti-CD61-PE or anti-CD61-FITC (BD Biosciences, San José, CA, USA).

In data set [3] the test system is Washed platelets. Kind of data set: Intraplatelet calcium levels (Fluo-4-AM). The following applies: compounds 1, 5 and 10 μM, 10 min. The data set is classed as cell-based, Human. As for the experimental part:
as §1
Intraplatelet calcium levels. Washed platelets (200-250 × 10^6 platelets/mL) were labeled Fluo-4-AM probe with 0.5 μM and incubated for 20 min at room temperature protected from light. Subsequently, platelets were adjusted to a count of 50 × 10^6 platelets/mL, and compounds (1, 5, and 10 μM) were added and incubated for 10 min at 37 °C. The sample was acquired in the BD Facs Lyric flow cytometer (BD Biosciences, USA). Representative dot plots are available in Supplementary Figs. 13 and 26. As a control for increased intracellular calcium, P-trifluoromethoxyphenylhydrazone carbonylcyanide (FCCP) 1 μM was used.

The subject of data set [4] is Washed platelets. Put plainly: Intraplatelet (cytosolic) ROS levels (DHE). In kind it is cell-based, Human. The following applies: compounds 1, 5 and 10 μM, 10 min. As for the experimental part:
as §1
Intraplatelet ROS levels. Washed platelets (50 × 10^6 platelets/mL) were labeled with the dihydroethidium (DHE) probe 10 μM and incubated for 20 min at 37 °C protected from light. After, compounds (1, 5, and 10 μM) were added to the platelets and incubated for 10 min at 37 °C. The sample was acquired in the BD Facs Lyric flow cytometer (BD Biosciences, USA). Representative dot plots are available in Supplementary Figs. 18 and 27. As a positive control for ROS, antimycin A 20 μM was used.

The subject of data set [5] is Washed platelets. Kind of data set: Mitochondrial membrane potential (TMRM). The settings on record: compounds 1, 5 and 10 μM, 20 min. In kind it is cell-based, Human. As for the experimental part:
as §1
Mitochondrial membrane potential (ΔΨm). Washed platelets (50 × 10^6 platelets/mL) were labeled with a 100 nM tetramethylrhodamine methyl ester (TMRM) probe and incubated with compounds (1, 5 and 10 μM) for 20 min at 37 °C. The sample was acquired in the BD Facs Lyric flow cytometer (BD Biosciences, USA). Representative dot plots are available in Supplementary Figs. 12, 24, and 25. Carbonyl cyanide 4-(trifluoromethoxy) phenylhydrazone (FCCP) 1 μM was used as a control for decreasing the mitochondrial membrane potential.

Data set [6] deals with Washed platelets. Kind of data set: Cellular cytotoxicity by release of lactate dehydrogenase (LDH). In kind it is cell-based, Human. The following applies: screening at 10–100 μM. As for the experimental part:
as §1
Cellular cytotoxicity by the release of lactate dehydrogenase (LDH). Washed platelets (200-250 × 10^6 platelets/mL) were incubated with the compounds under study or vehicle for 15 min at 37 °C. Then, the platelets were centrifuged at 900 g for 8 min to collect the supernatant. […] The absorbance was analyzed at 490 nm (Microplate Reader Thermo Scientific Multiskan Go, Finland).

The subject of a further data set is platelets. Kind of data set: Oxygen consumption and extracellular acidification rate (Seahorse XFe24). In kind it is cell-based, Human. The settings on record: 10 µM. As for the experimental part: as §1
Oxygen consumption and extracellular acidification rate. Oxygen consumption rate (OCR) and extracellular acidification rate (ECAR) were measured with a Seahorse XFe24 extracellular flux analyzer (Agilent, Santa Clara, CA, USA). Briefly, 100 μL of platelets washed in modified Tyrode-HEPES buffer were deposited (20–25 × 10^6 cells/well) and then centrifuged at 300 g for 10 min. Platelets were incubated with NP4 10 μM for 5 min, and then Tyrode's-HEPES buffer was removed and Seahorse medium (8.3 g/L DMEM, 1.85 g/L NaCl, 5 mM glucose, 1 mM pyruvate, 2 mM glutamine, 5 mM HEPES, pH 7.4) was added to a final volume of 600 μL [70]. OCR was measured before and after the sequential addition of 3 μg/mL collagen, 2.5 μM oligomycin, 1.4 μM FCCP, and 2 μM/2 μM antimycin A/rotenone. Non-mitochondrial OCR was subtracted from all measurements. Respiratory parameters obtained with Mito Stress Test (Supplementary Table 1) were calculated as follows: Baseline (baseline OCR), collagen (OCR after collagen addition), activation (collagen-basal), ATP-independent or proton leak (OCR resistant to oligomycin addition), ATP-linked respiration (basal-proton leak), maximum (OCR obtained after addition of FCCP), and spare (maximal-basal), coupling efficiency (OCR Basal – OCR ATP-indep)/OCR Basal). Respiratory parameters were calculated according to Refs. [66, 70, 73].

The mark [7] stands for this setting: Homo sapiens, Platelet, PMA 100 nM, read-out: IC50 for platelet aggregation, PMA.
The mark [8] stands for this setting: Homo sapiens, Platelet, TRAP-6 5 μM, read-out: IC50 for platelet aggregation, TRAP-6.
[9] abbreviates: Homo sapiens, Platelet, arachidonic acid 250 μg/mL, read-out: IC50 for platelet aggregation, Arachidonic Acid.
Where [10] appears, read: Homo sapiens, Platelet, collagen 2 μg/mL, read-out: IC50 for platelet aggregation, Collagen.

SMILES strings stand for the structures. Like-named read-outs stand apart in the source and are kept apart here.

As a reminder, the IC50 is the concentration that inhibits the measured activity by half. With `Cc1c(C)c(O)c2c(c1O)C(=O)C(CCCCBr)=CC2(C)C` [NB4, 2-(4-bromobutyl)-5,8-dihydroxy-4,4,6,7-tetramethylnaphthalen-1(4H)-one], the half-maximal inhibitory concentration (IC50) in the data set with Washed platelets [1] (setting [7]) was above 20 µM; in the data set with Washed platelets [1] (setting [8]), above 20 µM; in the data set on Washed platelets [1] (setting [9]) it was above 20 µM; in the data set on Washed platelets [1] (setting [10]), 15.3 ± 2.61 µM.
`COc1c(C)c(C)c(O)c2c1C(C)(C)C=C(CCCCBr)C2=O` [NBO4, 2-(4-bromobutyl)-8-hydroxy-5-methoxy-4,4,6,7-tetramethylnaphthalen-1(4H)-one]: the half-inhibitory concentration (IC50) is above 20 µM in the data set on Washed platelets [1] (setting [7]), above 20 µM with Washed platelets [1] (setting [8]), above 20 µM in the data set on Washed platelets [1] (setting [9]) and 4.87 ± 1.15 µM with Washed platelets [1] (setting [10]).
As to `CCCCC1=CC(C)(C)c2c(O)c(C)c(C)c(O)c2C1=O` [NH4, 2-Butyl-5,8-dihydroxy-4,4,6,7-tetramethylnaphthalen-1(4H)-one], the IC50 in the data set with Washed platelets [1] (setting [7]) was above 20 µM; in the data set with Washed platelets [1] (setting [8]), above 20 µM; with Washed platelets [1] (setting [9]), above 20 µM; in the data set on Washed platelets [1] (setting [10]), 4.76 ± 0.7 µM. Besides, in the data set with Washed platelets [2], the “Bound fibrinogen platelet activation marker” value was “did not have significant effects”. The “CD63 platelet activation marker” value in the data set on Washed platelets [2] is recorded as “did not have significant effects”. In addition, the “PAC-1 (activated GPIIb/IIIa) platelet activation marker” value in the data set with Washed platelets [2] was “did not have significant effects”. Moreover, the Intraplatelet calcium levels entry in the data set on Washed platelets [3] is given as “increase it significantly”. The “Cytosolic total ROS levels” value with Washed platelets [4] is “neither NP4 nor NH4 significantly affected”. Besides, in the data set on Washed platelets [5], the “Mitochondrial membrane potential (ΔΨm)” value is “significantly decrease”.
As to `CCCCC1=CC(C)(C)c2c(OC)c(C)c(C)c(O)c2C1=O` [NHO4, 2-Butyl-8-hydroxy-5-methoxy-4,4,6,7-tetramethylnaphthalen-1(4H)-one], the IC50 in the data set with Washed platelets [1] (setting [7]) is above 20 µM; in the data set on Washed platelets [1] (setting [8]), above 20 µM; in the data set with Washed platelets [1] (setting [9]), above 20 µM; in the data set with Washed platelets [1] (setting [10]), 18.4 ± 5.26 µM.
As usually defined, the melting point is the temperature of the solid-liquid transition. Consider `COc1c(C)c(C)c(O)c2c1C(C)(C)C=C(CCCC[P+](c1ccccc1)(c1ccccc1)c1ccccc1)C2=O.[Br-]` [NPO4, (4-(8-hydroxy-5-methoxy-4,4,6,7-tetramethyl-1-oxo-1,4-dihydronaphthalen-2-yl)butyl)triphenyl phosphonium bromide], for which the melting point lay within 91.5 to 93 °C. In the data set with Washed platelets [6], the “Cytotoxicity by LDH release (screening)” value is recorded as “*NPO4 was excluded because showed high cytotoxicity”.
`CCCC[P+](c1ccccc1)(c1ccccc1)c1ccccc1` [TPPBut, butyltriphenylphosphonium cation, reference compound]: in the data set on Washed platelets [1] (PMA 100 nM, read-out: IC50 for platelet aggregation, PMA), the IC50 is above 20 µM. Moreover, the IC50 in the data set on Washed platelets [1] (TRAP-6 5 μM, read-out: IC50 for platelet aggregation, TRAP-6) was above 20 µM. Moreover, the IC50 in the data set on Washed platelets [1] (arachidonic acid 250 μg/mL, read-out: IC50 for platelet aggregation, Arachidonic Acid) was above 20 µM. Moreover, the concentration for half-maximal inhibition (IC50) with Washed platelets [1] (collagen 2 μg/mL, read-out: IC50 for platelet aggregation, Collagen) was found to be 13.7 ± 2.27 µM. In the data set on Washed platelets [1] (convulxin 20 ng/mL, read-out: IC50 for platelet aggregation, Convulxin), the half-inhibitory concentration (IC50) was above 20 µM. Also, in the data set on platelets, the “ATP-dep (OCRBasal – OCRATP-indep)” value is given as 5,68 ± 0,10, the “Activation (OCRCollagen – OCRBasal)” value is reported as 0,59 ± 0,20, the “Coupling efficiency ((OCRBasal – OCRATP-indep)/OCRBasal)” value is reported as 0,92 ± 0,01 and the “Spare (OCRMaximum – OCRBasal)” value is listed as 0,73 ± 0,27. Moreover, in the data set on platelets (Seahorse Mito Stress Test), the “Basal (OCR/10^6 platelets)” value was 6,21 ± 0,08 OCR/10^6 platelets. The “Maximum (OCR/10^6 platelets)” value in the data set with platelets (after 1.4 μM FCCP) is 6,94 ± 0,19 OCR/10^6 platelets. In addition, the “Collagen (OCR/10^6 platelets)” value with platelets (after 3 μg/mL collagen) is on record as 6,80 ± 0,16 OCR/10^6 platelets. For the same compound, in the data set on platelets (after antimycin A/rotenone), the “Non-mito (OCR/10^6 platelets)” value is given as 0,01 ± 0,02 OCR/10^6 platelets. In addition, in the data set on platelets (proton leak, after 2.5 μM oligomycin), the “ATP-indep (OCR/10^6 platelets)” value is on record as 0,52 ± 0,05 OCR/10^6 platelets. In the data set with Washed platelets [2], the “Bound fibrinogen platelet activation marker” value is “did not show any effect”, the “CD63 platelet activation marker” value is “did not show any effect”, the “P-selectin platelet activation marker” value is reported as “did not show any effect” and the “PAC-1 (activated GPIIb/IIIa) platelet activation marker” value is “did not show any effect”. Also, the Intraplatelet calcium levels entry in the data set on Washed platelets [3] is listed as “did not show any effect”. In addition, the “Cytosolic total ROS levels” value with Washed platelets [4] is recorded as “did not show any effect”. For the same compound, the “Mitochondrial membrane potential (ΔΨm)” value in the data set with Washed platelets [5] is “did not show any effect”.
